Results on one compound are retold here after US6716824B1, “Treatment of pancreatic adenocarcinoma by cytotoxic gene therapy” (priority 1999, dated 2004).

Each structure is given as a SMILES string.

The test system of experiment [1] is CAPAN-1 cells. Put plainly: Ganciclovir dose response curve, untransfected cells, MTS assay. As to conditions: untransfected CAPAN-1 cells. Format: cell-based, human. How it is done: (§1) PANC-1, CAPAN-1 MIA-1 and A549 cells were plated into a ninety-six well plate at a density of 5,000 cells per well and given between 0 to 500 μg/ml of GCV to determine a dose response curve to GCV alone. The cells were treated for five days and cell viability was ascertained with an MTS assay. Results were plotted on a graph as OD 490 nm vs. GCV concentration.

Experiment [2] deals with PANC-1 cells. The description is as above. Format: cell-based, human. As to conditions: untransfected PANC-1 cells. The method, then:
as §1

The subject of experiment [3] is MIA-1 cells. The description is as above. Format: cell-based, human. The following applies: untransfected MIA-1 cells, five days. How it is done: as §1
Experiment [4] concerns A549 cells. The experiment is described as above. Format: cell-based, human. As to conditions: five days. The method, then: as §1
Experiment [5] concerns PANC-1 tumors. Kind of experiment: Treatment of human ductal pancreatic adenocarcinoma tumors in vivo, ICR/scid mice injected ip with PANC-1 cells. Also on record: species or system mouse. The following applies: PANC-1 tumors in ICR/scid mice, with GCV 40 mg/kg ip 7 days. The method, then: The effectiveness of RIPlacZ and RIP-tk gene constructs against PANC-1 was then studied in vivo using a SCID mouse model. SCID mice are immunodeficient and will not reject a human pancreatic cancer cell line. PANC-1 cells were injected intraperitoneally and tumors were visible by day 24. Once the model was established in the laboratory, the mice were treated with the gene therapy beginning at day 24 post-tumor-injection.
Six mice received seven days of PBS IP.
Three additional mice inoculated with PANC-1 cells received the RIPlacZ gene and were sacrificed thirty-six hours later.
Additional injected mice with tumors (n=3) received RIPlacZ and their tissues were fixed and stained with X-gal. Study endpoints consisted of monitoring tumor size and the presence of blue cells after X-gal staining.

Experiment [6] relates to NIT-1 cell tumors. Kind of experiment: Treatment of β-cell adenomas (insulinomas) in vivo, ICR/scid mice injected IP with NIT-1 cells. The following applies: ICR/scid mice with NIT-1 cells; genes via liposomes IP day 31, GCV 40 mg/kg IP seven days.
Method: To estimate tumor growth blood glucose was measured from the tail vein using a glucometer every other day.
Twenty-seven female ICR/scid mice, age 6-10 weeks old underwent intraperitoneal injections of 5×10^6 NIT-1 cells and nine female ICR/scid mice, age 6-10 weeks old underwent intraperitoneal injections of PBS. At day 31, the mice were randomized to receive either the RIP-tk gene, the RIPlacZ gene, or nothing. The RIP-lac-Z construct served both as a control and to localize gene expression. The genes were delivered via liposomes IP (liposomes provided by Dr. Nancy Smyth-Templeton Center for Gene Therapy and Department of Cell Biology, Baylor College of Medicine) and mixed as described (Smyth-Templeton N, et al., 15 Nature Biotechnology 647-652 (1997)). Six mice were randomized to receive the RIP-tk gene followed by seven days of GCV (40 mg/kg IP). Six mice were randomized to receive the RIP-lacZ gene followed by seven days of GVC (40 mg/kg IP). Six mice were randomized to receive PBS followed by seven days of GCV (40 mg/kg IP). Six mice that were inoculated with NIT-1 cells were randomized to receive seven days of PBS. […]
In another murine hypoglycemic tumor model, 5×10^6 NIT-1 cells (or PBS) were injected intraperitoneally (IP) into ICR/scid mice (n=12 per group). […] Blood glucose values, animal survival, and blue cells after X-gal staining were recorded.
The test system of experiment [7] is NIT-1 cells. Put plainly: Ganciclovir dose response curve, untransfected cells, MTS assay. In kind it is cell-based, mouse. The following applies: untransfected NIT-1 cells. How it is done: (§2) Dose response curves with GCV for untransfected NIT-1 and F9 (control) cells were performed prior to cytoxicity studies with genetic constructs. NIT-1 cells were plated into a ninety-six well plate at a density of 5,000 cells per well and treated with GCV (0.1 to 2.5 μg/ml) to determine a dose response curve to GCV alone. The cells were treated daily for five days and cell viability was ascertained with an MTS assay. […] The GCV toxicity dose response curve for F9 cells resembled other cell lines (FIG. I B). […] Note that at concentrations of GCV 0.25 μg/ml and higher a significant decrease in cell survival is observed, n=8, *p<0.05, Unpaired Student t-test.
For orientation: Tetrazolium assays rely on reduction of a dye to a coloured formazan, in cell work by metabolically active cells.

For experiment [8], the system named is F9 cells. Described as above. Format: cell-based, mouse. The following applies: n=8. How it is done: as §2

Take `Nc1nc(O)c2ncn(COC(CO)CO)c2n1` [GCV, Ganciclovir]: the figures for the “maximum dose of GCV one can use to treat cells in culture” value in experiment [1], in experiment [2] and in experiment [7] were 15 µg/mL, 20 µg/mL and 0.20 µg/mL, respectively. The “GCV dosage significantly decreasing cell OD 490” value in experiment [1] (five days) was “greater than 20 μg/ml”; in experiment [2] (five days, n=8), “greater than 50 μg/ml”; in experiment [3], “greater than 20 μg/ml”; in experiment [4] it was “greater than 50 μg/ml”. Moreover, the “tumor burden / tumor size (in words)” value in experiment [5] is recorded as “developed large peri-pancreatic intraperitoneal tumors”. For the same compound, the blood glucose levels result in experiment [6] is “rapid decline in blood glucose levels”. Moreover, in experiment [8], the “GCV toxicity dose response (in words)” value was “resembles that of other published cell lines”.
